From patent US6767741B1, “Metal binding compounds and their use in cell culture medium compositions” (Invitrogen Corporation, priority 1999, dated 2004)

How the values were obtained:
Format in all cases: cell-based
Conditions in all cases: third passage
CHO cells = test: Growth of CHO cells in transferrin-free CD CHO medium with metal binding compounds
Protocol: The ability of metal binding compounds to support cellular growth in the absence of transferrin was evaluated using CHO cells maintained in CD CHO medium (Life Technologies, Rockville, Md., the formulation of which is described in WO 98/08934). Stock cultures containing 5 μg/mL human holo-transferrin were prepared in CD CHO medium. For metal binding compound evaluation, CHO cells were established in 125 mL shaker flasks at an initial viable seeding density of 1×10^5 cells/mL in a final volume of 20 mL. All cultures were maintained at 37° C. in humidified air containing 8% CO2. To eliminate transferrin carry-over effects, cells were subcultured at 4 day intervals for a total of three passages. Positive control cultures contained 5 μg/mL human holo-transferrin while negative control cultures were established in the absence of either transferrin or metal binding compound. Metal binding compound stocks were prepared at 0.1M-0.2M in ddH2O and solubilized when necessary using 5N NaOH or HCl. Iron complexes were established using 0.2M metal binding compound and iron stocks mixed 1:1 (v/v) and incubated for 5-10 minutes at 22° C. All solutions containing metal binding compounds were filter sterilized using a 0.22 μm Millex-GV filter prior to addition to transferrin and serum-free media.
(§1) In most cases, metal binding compounds were evaluated either alone or in combination with ferric chloride or ferrous sulfate at 25 μM, 50 μM and 100 μM. Values in the table represent the mean percentage of control growth for duplicate cultures determined at the third passage.
The ability of various metal binding compounds to substitute for transferrin in the culture of CHO cells was determined. When added to the medium formulation un-complexed, the metal binding compound is listed alone, when added as a complex with a transition metal, the source of the transition metal is listed with the metal binding compound.

Sp2/0 cells = test: Growth of Sp2/0 cells in transferrin-free CD Hybridoma medium with metal binding compounds
Protocol: The ability of iron metal binding compounds to support cellular growth in the absence of transferrin was evaluated using Sp2/0 cells maintained in CD Hybridoma medium (Life Technologies, Rockville, Md.). Stock cultures containing 5 μg/mL human holo-transferrin were prepared in CD Hybridoma medium. For metal binding compound evaluation, Sp2/0 cells were established at an initial viable cell density of 0.5×10^5 cells/mL in stationary culture using 75 cm^2 tissue culture flasks in a final volume of 20 mL. All cultures were maintained at 37° C. in humidified air containing 8% CO2. To eliminate transferrin carry-over effects, cells were subcultured at the same seeding density at 4 day intervals for a total of three passages. Positive control cultures contained 5 μg/mL human holotransferrin while negative control cultures were established in the absence of either transferrin or metal binding compound. Metal binding compound stocks were prepared at 0.1M-0.2M in ddH2O and solubilized when necessary using 5N NaOH or HCl. Iron complexes were established using 0.2M metal binding compound and iron stocks mixed 1:1 (v/v) and incubated for 5-10 minutes at 22° C. All solutions containing metal binding compounds were filter sterilized using a 0.22 μm Millex-GV filter prior to addition to transferrin and serum-free media.
as §1
(§2) When added to the medium formulation un-complexed, the metal binding compound is listed alone, when added as a complex with a transition metal, the source of the transition metal is listed with the metal binding compound.

293 cells = test: Growth of 293 cells in transferrin-free 293 SFM with metal binding compounds
Protocol: Semi-confluent adherent cultures of 293 Cells (ATCC, CRL 1573) are readily adapted to suspension culture. The cells are first detached with a solution of Trypsin-EDTA (0.05% Trypsin, 0.53 mM Na4EDTA), and then resuspended in conventional medium supplemented with 10% FBS to inhibit the trypsin. The resuspended cells are centrifuged at 200×g for five minutes. The cell pellet is resuspended in 293 SFM (available from Life Technologies, Rockville, Md.) the formulation of which is described in WO 98/08934 which is specifically incorporated herein by reference. Alternatively, the cells may be detached with Versene (Na4EDTA, 0.53 mM) and resuspended in 293 SFM.
The initial seeding density of the 293 cells after conversion to suspension culture is 1×10^6 cells/mL. The cells are shaken on a rotary shaker at 150 rpm in a 37° C. incubator equilibrated with 8% CO2-92% air. When the cells reach a density of 1.5×10^6 cells/mL they are diluted with 293 SFM to a density of 3.0×10^5 cells/mL. Because 293 cells have a tendency to aggregate, the cells may be vortexed vigorously for approximately 45 seconds to obtain a predominantly single cell suspension at the time of passaging and counting. After several passages in suspension culture, the maximum achievable density may be determined.
The ability of metal binding compounds to support cellular growth was evaluated using 293 cells maintained in 293 SFM (Life Technologies, Rockville, Md.) without transferrin or metal binding compound. Stock cultures containing 5 μg/mL human holo-transferrin were prepared in 293 SFM. For metal binding compound evaluation, 293 cells were established in 125 mL shaker flasks at an initial viable seeding density of 2×10^5 cells/mL in a final volume of 20 mL. All cultures were maintained at 37° C. in humidified air containing 8% CO2. To eliminate transferrin carry-over effects, cells were subcultured at 4 day intervals for a total of three passages. At each subculturing, cells were seeded at a density of 2×10^5 cells/mL. Positive control cultures contained 5 μg/mL human holo-transferrin while negative control cultures were established in the absence of either transferrin or metal binding compound. Metal binding compound stocks were prepared at 0.1M-0.2M in ddH2O and solubilized when necessary using 5N NaOH or HCl. Iron complexes were established using 0.2M metal binding compound and iron stocks mixed 1:1 (v/v) and incubated for 5-10 minutes at 22° C. All solutions containing metal binding compounds were filter sterilized using a 0.22 μm Millex-GV filter prior to addition to transferrin and serum-free media.
as §1, with “μM. When used in combination, the metal binding compounds were used in equimolar concentration with iron ions.” for “μM.”
as §2

[1] = 25 μM, control = 5 μg/mL human holo-transferrin, duplicate cultures
[2] = 50 μM, control = 5 μg/mL human holo-transferrin, duplicate cultures
[3] = 100 μM, control = 5 μg/mL human holo-transferrin, duplicate cultures
[4] = 5 μM, control = holo-transferrin
[5] = 10 μM, control = holo-transferrin
[6] = 20 μM, control = holo-transferrin

Compound | mean percentage of control growth (CHO cells; [1]) [%] | mean percentage of control growth (CHO cells; [2]) [%] | mean percentage of control growth (CHO cells; [3]) [%] | mean percentage of control growth (Sp2/0 cells; [1]) | mean percentage of control growth (Sp2/0 cells; [2]) [%] | mean percentage of control growth (Sp2/0 cells; [3]) [%] | mean percentage of control growth (293 cells; [1]) [%] | mean percentage of control growth (293 cells; [2]) [%] | mean percentage of control growth (293 cells; [3]) [%] | mean percentage of control growth (293 cells; [4]) [%] | mean percentage of control growth (293 cells; [5]) [%] | mean percentage of control growth (293 cells; [6]) [%] | mean percentage of control growth (CHO cells; [4]) [%] | mean percentage of control growth (CHO cells; [5]) [%] | mean percentage of control growth (CHO cells; [6]) [%] | mean percentage of control growth (Sp2/0 cells; [4]) [%] | mean percentage of control growth (Sp2/0 cells; [5]) [%] | mean percentage of control growth (Sp2/0 cells; [6]) [%]
O=C(O)c1ccccn1.[Cl][Fe]([Cl])[Cl] [2-Pyridinecarboxylic Acid · Ferric Chloride] | 88 | 89 | 100 | 0% | 30 | 48 | – | – | – | – | – | – | – | – | – | – | – | –
O=C(O)c1ccc[n+]([O-])c1.[Cl][Fe]([Cl])[Cl] [Nicotinic Acid-N-Oxide · Ferric Chloride] | 60 | 84 | 105 | – | – | – | 104 | 80 | 79 | – | – | – | – | – | – | – | – | –
CC(=O)N(O)CCCCCNC(=O)CCC(=O)N(O)CCCCCNC(=O)CCC(=O)N(O)CCCCCN.CS(=O)(=O)O.[Cl][Fe]([Cl])[Cl] [Deferoxamine Mesylate · Ferric Chloride] | – | – | – | – | – | – | – | – | – | 101 | 120 | 127 | 50 | 74 | 52 | 0 | 0 | 0
OC[C@@H](O)[C@@H](O)[C@H](O)[C@@H](O)CO.[Cl][Fe]([Cl])[Cl] [Sorbitol · Ferric Chloride] | 100 | 107 | 112 | 94% | 55 | 60 | – | – | – | – | – | – | – | – | – | – | – | –
O=S(=O)([O-])[O-].[Fe+2] [Ferrous Sulfate, reference compound] | 88 | 79 | 38 | 91% | 103 | 94 | 71 | 60 | 41 | – | – | – | – | – | – | – | – | –
O=C(O)CN(CCN(CC(=O)O)CC(=O)O)CCN(CC(=O)O)CC(=O)O.O=S(=O)([O-])[O-].[Fe+2] [Diethylenetriamine Penta-Acetic Acid · Ferrous Sulfate] | 135 | 137 | 147 | 54% | 90 | 91 | 77 | 107 | 85 | – | – | – | – | – | – | – | – | –
[Cl][Fe]([Cl])[Cl] [Ferric Chloride, reference compound] | 56 | 85 | 101 | 55% | 73 | 74 | 87 | 91 | 109 | – | – | – | – | – | – | – | – | –
O=c1cc(CO)occ1O.[Cl][Fe]([Cl])[Cl] [Kojic Acid · Ferric Chloride] | 89 | 88 | 85 | 0% | 0 | 0 | – | – | – | – | – | – | – | – | – | – | – | –
Cc1ncc(CO)c(C(=O)O)c1O.[Cl][Fe]([Cl])[Cl] [4-Pyridoxic Acid · Ferric Chloride] | 55 | 63 | 100 | 40% | 73 | 76 | 109 | 85 | 99 | – | – | – | – | – | – | – | – | –
NC(CC(=O)O)C(=O)O.[Cl][Fe]([Cl])[Cl] (stereo not drawn) [Aspartic Acid · Ferric Chloride] | 77 | 89 | 112 | – | – | – | 81 | 86 | 100 | – | – | – | – | – | – | – | – | –
Ferrous Gluconate · Ascorbic Acid Phosphate | 91 | 61 | 28 | 92% | 94 | 93 | 86 | 109 | 101 | – | – | – | – | – | – | – | – | –
NC(CS)C(=O)O.O=S(=O)([O-])[O-].[Fe+2] (stereo not drawn) [Cysteine · Ferrous Sulfate] | 83 | 64 | 45 | 85? % | 79 | 67 | – | – | – | – | – | – | – | – | – | – | – | –
O=c1cc(CO)occ1O [Kojic Acid] | 0 | 0 | 0 | 0% | 0 | 0 | – | – | – | – | – | – | – | – | – | – | – | –
[Cl][Fe]([Cl])[Cl].c1ccc(Nc2ccccn2)nc1 [2,2-Dipyridylamine · Ferric Chloride] | 40 | 48 | 65 | – | – | – | 118 | 96 | 101 | – | – | – | – | – | – | – | – | –
